Results as given in patent US9115145B2, “Tocotrienol derivatives and associated methods” (FIRST TECH INTERNATIONAL LIMITED, priority 2011, dated 2015).
Read-outs that look alike come from different tables or passages of the source.

How the values were obtained:
[1] = tested on: +SA mammary epithelial cells; test: MTT assay of +SA cells (antiproliferative activity); assay type: cell-based, mouse; conditions: Mus musculus, +SA cell, 24 hours treatment, read-out: IC50 antiproliferative activity against +SA mammary epithelial cells
Experimental: The antiproliferative activities of Compounds 3-44 against the highly metastatic malignant +SA mammary epithelial cells were evaluated by MTT assay. Materials for the assay were purchased from Sigma Chemical Company (St. Louis, Mo.) unless otherwise stated. The highly malignant +SA mouse mammary epithelial cell line was serially passaged at subconfluent cell density. The +SA mammary tumor cell line was derived from an adenocarcinoma that developed spontaneously in a BALB/c female mouse. +SA cells were maintained in serum-free defined medium consisting of Dulbecco's modified Eagle's medium (DMEM)/F12 containing 5 mg/mL bovine serum albumin (BSA), 10 […], 100 U/mL soybean trypsin inhibitor, 100 U/mL penicillin G, 0.1 mg/mL streptomycin, […], and 10 ng/mL epidermal growth factor. For subculturing, cells were rinsed twice with sterile Ca2+ and Mg2+-free phosphate buffered saline (PBS) and incubated in 0.05% trypsin containing 0.025% EDTA in PBS for 5 min at 37° C. The released cells were centrifuged, resuspended in fresh media and counted using hemocytometer. A stock solution of the compounds was prepared in DMSO. Once dissolved, this solution was added to a small volume of sterile 10% BSA in water and incubated overnight at 37° C. This solution conjugated to BSA was used to prepare various concentrations (0-40 μM) of tocotrienol analogs. DMSO was added to all treatment media such that the final DMSO concentration was the same in all treatment groups within a given experiment and was always less than 0.1%. For cytotoxic studies, cells were seeded at a density of 5×10^4 cells/well (+SA cells) or 1×10^5 cells/well (CL-S1 cells) (6 wells/group) in 24-well culture plates and allowed to grow in their respective control media. After 3 days incubation period (approximately 70% confluency), cells were divided equally into various treatment groups and exposed to their respective treatments for a 24 hours incubation period. Following the 24 hours treatment period, cell viability was measured using the MTT assay.
+SA Mammary epithelial cell viable number was determined by a 3-(4,5-dimethylthiazol-2yl)-2,5-diphenyl tetrazolium bromide (MTT) colorimetric assay. On the assay day, treatment medium was replaced with fresh control medium containing 0.42 mg/mL MTT, and the cells in 24-well plates were incubated at 37° C. for 4 hours. Afterward, the medium was removed, and the MTT crystals were dissolved in isopropyl alcohol (1 mL/well). The optical density of each sample was read at 570 nm on a microplate reader (SpectraCount, Packard BioScience Company), against a blank prepared from cell-free cultures. The number of cells/well was calculated against a standard curve prepared by plating various concentrations of cells, as determined by hemocytometer, at the start of each experiment.
Differences among the various treatment groups in +SA cell cytotoxic studies were determined by analysis of variance (ANOVA) followed by Dunnett's t-test. The difference of P<0.05 was considered to be statistically significant as compared with vehicle-treated controls unless separately described. Linear regression analysis of treatment effects on viable cell number in growth and cytotoxicity studies was used to determine the 50% growth inhibition concentration (IC50) for individual treatments.

[2] = tested on: 60 human tumor cell lines; test: NCI in vitro screening against 60 human cell lines, single concentration; assay type: cell-based; conditions: 10 μM dose; negative values indicate cytotoxicity
Experimental: Compounds selected from Compounds 3-44 were provided to the National Cancer Institute for in vitro screening against 60-human cell lines for their ability to inhibit the growth of tumor cells in a full panel representing nine different organs (blood, lung, colon, CNS, skin, ovary, kidney, prostate, and breast). The compounds were tested at a single concentration of 10 μM, and the percentages of growth inhibitions over the sixty tested cell lines were determined. Compounds showing the highest activity were chosen for secondary assays using five different compound concentrations.
The human tumor cell lines of the cancer screening panel were grown in RPMI 1640 medium containing 5% fetal bovine serum and 2 mM L-glutamine. For a typical screening experiment, cells are inoculated into 96 well microtiter plates in 100 μL at plating densities ranging from 5000 to 40,000 cells/well depending on the doubling time of individual cell lines. After cell inoculation, the microtiter plates are incubated at 37° C., 5% CO2, 95% air and 100% relative humidity for 24 hours prior to addition of experimental drugs. After 24 hours, two plates of each cell line are fixed in situ with Trichloroacetic acid (“TCA”), to represent a measurement of the cell population for each cell line at the time of drug addition. Experimental drugs are solubilized in dimethyl sulfoxide at 400-fold the desired final maximum test concentration and stored frozen prior to use. At the time of drug addition, an aliquot of frozen concentrate is thawed and diluted to twice the desired final maximum test concentration with complete medium containing 50 ng/mL gentamicin. An aliquot of 100 μL of this drug dilution is added to the appropriate microtiter wells already containing 100 μL of medium, resulting in the required final drug concentrations. Following drug addition, the plates are incubated for an additional 48 h at 37° C., 5% CO2, 95% air, and 100% relative humidity. For adherent cells, the assay is terminated by the addition of cold TCA. Cells are fixed in situ by the gentle addition of 50 μL of cold 50% (w/v) TCA (final concentration, 10% TCA) and incubated for 60 min at 4° C. The supernatant is discarded, and the plates are washed five times with tap water and air dried. Sulforhodamine B (SRB) solution (100 μL) at 0.4% (w/v) in 1% acetic acid is added to each well, and plates are incubated for 10 min at room temperature. After staining, unbound dye is removed by washing five times with 1% acetic acid and the plates are air dried. Bound stain is subsequently solubilized with 10 mM trizma base, and the absorbance is read on an automated plate reader at a wavelength of 515 nm. For suspension cells, the methodology is the same except that the assay is terminated by fixing settled cells at the bottom of the wells by gently adding 50 μL of 80% TCA (final concentration, 16% TCA). FIGS. 37-74 indicate the growth inhibition effects of selected Compounds against a variety of cell lines based on the above described testing configuration. FIGS. 37-74 present the Growth percent for a given compound against the cell lines and both values and a bar chart of the difference between the mean growth percent and the growth percent which is an indication of the selectivity of the compound for that particular cell line.

[3] = tested on: leukemia and colon cancer cell lines; test: NCI screening at several concentrations (GI50, TGI, LC50); assay type: cell-based, human
Experimental: The human tumor cell lines of the cancer screening panel were grown in RPMI 1640 medium containing 5% fetal bovine serum and 2 mM L-glutamine. For a typical screening experiment, cells are inoculated into 96 well microtiter plates in 100 μL at plating densities ranging from 5000 to 40,000 cells/well depending on the doubling time of individual cell lines. After cell inoculation, the microtiter plates are incubated at 37° C., 5% CO2, 95% air and 100% relative humidity for 24 hours prior to addition of experimental drugs. After 24 hours, two plates of each cell line are fixed in situ with Trichloroacetic acid (“TCA”), to represent a measurement of the cell population for each cell line at the time of drug addition. Experimental drugs are solubilized in dimethyl sulfoxide at 400-fold the desired final maximum test concentration and stored frozen prior to use. At the time of drug addition, an aliquot of frozen concentrate is thawed and diluted to twice the desired final maximum test concentration with complete medium containing 50 ng/mL gentamicin. An aliquot of 100 μL of this drug dilution is added to the appropriate microtiter wells already containing 100 μL of medium, resulting in the required final drug concentrations. Following drug addition, the plates are incubated for an additional 48 h at 37° C., 5% CO2, 95% air, and 100% relative humidity. For adherent cells, the assay is terminated by the addition of cold TCA. Cells are fixed in situ by the gentle addition of 50 μL of cold 50% (w/v) TCA (final concentration, 10% TCA) and incubated for 60 min at 4° C. The supernatant is discarded, and the plates are washed five times with tap water and air dried. Sulforhodamine B (SRB) solution (100 μL) at 0.4% (w/v) in 1% acetic acid is added to each well, and plates are incubated for 10 min at room temperature. After staining, unbound dye is removed by washing five times with 1% acetic acid and the plates are air dried. Bound stain is subsequently solubilized with 10 mM trizma base, and the absorbance is read on an automated plate reader at a wavelength of 515 nm. For suspension cells, the methodology is the same except that the assay is terminated by fixing settled cells at the bottom of the wells by gently adding 50 μL of 80% TCA (final concentration, 16% TCA). FIGS. 37-74 indicate the growth inhibition effects of selected Compounds against a variety of cell lines based on the above described testing configuration. FIGS. 37-74 present the Growth percent for a given compound against the cell lines and both values and a bar chart of the difference between the mean growth percent and the growth percent which is an indication of the selectivity of the compound for that particular cell line. […]

[4] = tested on: MCF7 human breast cancer cell line; test: MTT assay of MCF7 cells; assay type: cell-based; conditions: Homo sapiens, media containing 1% fetal bovine serum
Experimental: (§1) MDA-MB-231 and MCF7 cells were plated at a density of 8×10^3 cells/well and 10^4 cells/well in 96-well culture plates, respectively. The compounds were fed in serum free media containing 5% and 1% fetal bovine serum for MDA-MB-231 and MCF7 cells, respectively.

[5] = tested on: MCF 10A non-tumorigenic mammary epithelial cells; test: MTT assay of MCF10A cells; assay type: cell-based, human; conditions: for IC50: Homo sapiens
Experimental: MCF 10A (ATCC cat # CRL-10317) normal human non-tumorigenic mammary epithelial cells were maintained in serum-free defined medium consisting of Dulbecco's modified Eagle's medium (DMEM)/F12 containing 5% horse serum, 1% penicillin/streptomycin, 0.5 μg/mL hydrocortisone, 100 ng/mL cholera toxin, 10 μg/mL insulin, and 20 ng/mL epidermal growth factor (rhEGF). For subculturing, cells were rinsed twice with sterile Ca2+ and Mg2+-free phosphate buffered saline (PBS) and incubated in 0.25% trypsin containing 0.025% EDTA in PBS for 5 min at 37° C. The released cells were centrifuged, re-suspended in fresh media and counted using a hemocytometer. For testing, MCF 10A cells were plated at a density of 10×10^4 cells/well. A stock solution of the compounds was prepared in DMSO. DMSO was added to all treatment media such that the final DMSO concentration was the same in all treatment groups within a given experiment and was always less than 0.1%. The compounds were fed in serum free media. MCF10A mammary epithelial cell's viable number was determined by MTT colorimetric assay. […] IC50 values were calculated by non-linear regression using statistical software. The selectivity index indicated in the table represents the IC50 value for the MCF 10A cell line divided by the IC50 value for the +SA cell line.

[6] = tested on: MDA-MB-231 human breast cancer cell line; test: MTT assay of MDA-MB-231 cells; assay type: cell-based; conditions: Homo sapiens, media containing 5% fetal bovine serum
Experimental: as §1

[7] = tested on: MDA-MB-231 human breast cancer cells; test: Wound-healing assay (cell migration); assay type: cell-based; conditions: Homo sapiens; MDA-MB-231, wound-healing assay, dose response; read-out: IC50 antimigratory activity
Experimental: The highly metastatic human breast cancer MDA-MB-231 cells were cultured in RPMI 1640 medium containing 10 mM HEPES, 4 mM L-glutamine, 10% fetal bovine serum, penicillin (100 IU/mL), and streptomycin (50 μg/mL), and grown in a 5% CO2 atmosphere at 37° C. Cells were plated onto sterile 24-well and allowed to recover for a confluent cell monolayer formed in each well (>95% confluence). Wounds were then inflicted to each cell monolayer using a sterile 200 μL pipette tip. Media were removed, cells monolayers were washed twice with PBS, and then fresh media containing test compounds were added to each well. Test compounds were prepared in DMSO at 5 μM concentration and added to the plates, each in triplicate using DMSO as negative control. The incubation was carried out for 24 h under serum-starved conditions, after which media was removed and cells were fixed and stained using a staining composition sold under the trade name Diff Quick (Dade Behring Diagnostics, Aguada, Puerto Rico). The stain comprised a fixative reagent containing 1.8 mg/L triarylmethane dye in methyl alcohol; a first solution of 1 g/L xanthene dye, buffer, and sodium azide (0.01%) as preservative; and a second solution of 1.25 g/L Thiazine dye mixture (0.625 g/L azure A and 0.625 g/L methylene blue) and buffer. The number of cells migrated on the scratched wound were counted under the microscope in three or more randomly selected fields (magnification: 400×). Final results are expressed as mean±SEM per 400× field. The wound-healing assay is a simple method for the study of directional cell migration in vitro.
Compounds were tested for their ability to inhibit the migration of the highly metastatic MDA-MB-231 human breast cancer cells in the wound-healing assay using the procedure described above. Compounds 6, 10, 12, 13, 24, 26, 27, and 29 inhibited the migration of more than 50% of the human breast cancer cells MDA-MB-231 in the wound healing assay at 5 μM dose. […] The antimigratory activity of tocotrienols may be enhanced by a terminal aromatic functionality. The presence of electron withdrawing group, such as nitro in Compound 29, may eliminate the antiproliferative activity yet retain the antimigratory activity of the compound. While the electron donating groups, such as OH and OMe found in Compounds 23 and 26, respectively, retained both antiproliferative and antimigratory activities.
Utilizing similar procedures follow-up testing was conducted on a variety of compounds using a range of compound concentrations. The results of follow-up antimigratory testing are shown in FIG. 35B and Table III below with IC50 values calculated using statistical software.

Row | Structure (SMILES) | IC50 [1] [µM] | mean percent growth across all 60 cell lines (mean 60) [2] | GI50 [3] | IC50 [4] [µM] | IC50 ([5]; MCF-10A, MCF10A cells, Table II, non-linear regression, read-out: MCF10A (IC50)) [µM] | IC50 ([5]; MCF 10A non-tumorigenic cells, Table I, read-out: IC50 MCF 10A) [µM] | Selectivity index ([5]; IC50 for MCF 10A divided by IC50 for +SA cell line) | IC50 [6] [µM] | IC50 [7] [µM]
1 | CC(C)=CCC/C(C)=C/CC/C(C)=C/CC[C@]1(C)CCc2c(CNCCc3ccc(O)cc3)c(O)c(C)c(C)c2O1 [Compound 31, (R)-5-((4-hydroxyphenethylamino)methyl)-2,7,8-trimethyl-2-((3E,7E)-4,8,12-trimethyltrideca-3,7,11-trienyl)chroman-6-ol] | 0.47 | comparable to the activity of Compound 1 | – | – | – | – | – | – | –
2 | CC(C)=CCC/C(C)=C/CC/C(C)=C/CC[C@]1(C)CCc2c3c(cc(C)c2O1)OCN(C1CCN(Cc2ccccc2)CC1)C3 [Compound 8, (R)-2-(1-benzylpiperidin-4-yl)-6,8-dimethyl-8-((3E,7E)-4,8,12-trimethyltrideca-3,7,11-trienyl)-1,2,3,8,9,10-hexahydrochromeno[5,6-e][1,3]oxazine] | – | – | nanomolar | – | – | – | – | – | –
3 | CC(C)=CCC/C(C)=C/CC/C(C)=C/CC[C@]1(C)CCc2c3c(cc(C)c2O1)OCN(CCCCO)C3 [Compound 36, 4-((R)-6,8-dimethyl-8-((3E,7E)-4,8,12-trimethyltrideca-3,7,11-trienyl)-9,10-dihydrochromeno[5,6-e][1,3]oxazin-2(1H,3H,8H)-yl)butan-1-ol] | – | negative | – | 16.3 | 4.2 | 4.2 | 2.34 | > 5 | 2.2
